{"source": "patent US20240139197A1", "about": "“INHIBITION OF KDM5A FOR PROMOTING ANTIGEN PRESENTATION, INCREASING CD8+ T CELL INFILTRATION AND BOOSTING ANTI-TUMOR IMMUNE RESPONSE” (The Wistar Institute of Anatomy and Biology, priority 2022, published 2024)", "key": {"H2-K1 on HGS2 cells": {"tested_on": "H2-K1 on HGS2 cells", "experiment": "cell surface MHC class I H2-K1 by FACS, HGS2", "format": "cell-based, mouse", "conditions": "HGS2, in response to IFNγ", "text": "FIG. 8A-FIG. 8K show KDM5A regulates antigen processing and presentation pathway. (FIG. 8A) Validation of Kdm5a knockout and upregulation of H3K4me3 in Kdm5a knockout ID8 cells by immunoblot. β-actin expression was used as a loading control. (FIG. 8B) GSEA KEGG enrichment analysis of differentially expressed genes (DEGs) between control and Kdm5a knockout ID8 cells. NES, normalized enrichment score. (FIG. 8C) Enrichment plot of GSEA for antigen processing and presentation pathway. […] (FIG. 8E) Expression of Kdm5a and a loading control β-actin in inducible Kdm5a knockdown HGS2 cells with or without doxycycline treatment determined by immunoblot. (FIG. 8F) Cell surface expression of H2-K1 in HGS2 cells with or without inducible Kdm5a knockdown stimulated with IFNy was determined by FACS analysis. (FIG. 8G) Quantification of FIG. 8F. (FIG. 8H) Cell surface expression of H2-K1 in HGS2 cells treated with or without CPI455 and stimulated with IFNy was determined by FACS analysis. (FIG. 8I) Quantification of FIG. 8H; (FIG. 8J) Correlation between CD8A and HLA-A or HLA-B expression based on RNA-seq analysis in the TCGA HGSOC dataset. […] Data represent mean +SEM; P values were calculated by using a two-tailed Student t test except in FIG. 8J and FIG. 8K by using Pearson r analysis and FIG. 8B and FIG. 8C by using GSEA. […]"}, "H3K4me3 in HGS2 cells": {"tested_on": "H3K4me3 in HGS2 cells", "experiment": "immunoblot of H3K4me3, HGS2", "format": "cell-based, mouse", "conditions": "HGS2, 10 μM, 72 hours", "experimental": "FIG. 6A-FIG. 6K show KDM5A inhibition promotes anti-tumor immune response in vivo. (FIG. 6A) Expression of H3K4me3, Kdm5a and a loading control b-actin in an independent second doxycycline-inducible shKdm5a ID8 clone treated with or without 2 μg/mL of doxycycline. (FIG. 6B) Same as FIG. 6A, but doxycycline-inducible shKdm5a ID8 cells were plated into 24 well plates and treated with 2 μg/mL of doxycycline the same day. Cells were incubated for 8 days. Relative cell viability was determined by colony formation assay. (FIG. 6C) Expression of H3K4me3, Kdm5a and a loading control b-actin in HGS2 cells treated 10 μM of CPI-455 or vehicle controls for 72 hours. […] Relative cell viability was determined by colony formation assay. (FIG. 6E-FIG. 6F) Bioluminescence signal was measured by IVIS system in indicated animal groups in the immunocompetent C57BL/6 mouse model once a week (FIG. 6E) and the survival of the indicated groups was determined by Kaplan-Meier survival curves (FIG. 6F) (n=5 mice per group). […] Ascites volumes produced from the indicated groups were quantified (FIG. 6H). n=5 mice per group. […] (FIG. 6J-FIG. 6K) Bioluminescence signal was measured by IVIS system in indicated animal groups in the immunocompromised NSG mouse model once a week (FIG. 6J), or examined for Kaplan-Meier survival curves for the indicated groups (FIG. 6K). […]"}}}
{"substance": "CPI-455", "values": [{"measurement": "MHC class I presence on cell surface", "setting": "H2-K1 on HGS2 cells", "value": "increased MHC class I presence on cell surface"}, {"measurement": "H3K4me3 levels", "setting": "H3K4me3 in HGS2 cells", "value": "increase H3K4me3 levels"}]}
